The text below walks through data of ChEMBL document CHEMBL1149599, “Design, syntheses, and antitumor activity of novel chromone and aurone derivatives” (Bioorg Med Chem, 2007).

Experiment [1] can be described thus: cells. The settings on record: Homo sapiens, MDA-MB-435S, 72 h. Type of experiment: functional, cell-based.
Description: Antiproliferative activity against human MDA-MB-435S cells after 72 hrs by MTT method
Experiment [2] is described as follows: Antiproliferative activity against human HCCLM7 cells after 72 hrs by MTT method. Format: functional, cell-based. The settings on record: HCCLM7, 72 h.
The subject of experiment [3] is HEp-2. Nature of the experiment: Antiproliferative activity against human Hep2 cells after 72 hrs by MTT method. Type of experiment: functional, cell-based. As to conditions: HEp-2, 72 h.
In experiment [4] the test system is SW480. Nature of the experiment: Antiproliferative activity against human SW480 cells after 72 hrs by MTT method. Type of experiment: functional, cell-based. The settings on record: SW480, 72 h. (Tetrazolium assays rely on reduction of a dye to a coloured formazan, in cell work by metabolically active cells.)
In experiment [5] the test system is HEp-2. Nature of the experiment: Cell cycle arrest in Hep2 cells assessed as accumulation at G0/G1 phase at 5.7 uM after 24 hrs. Format: functional, Homo sapiens.
The subject of experiment [6] is HEp-2. Nature of the experiment: Cell cycle arrest in Hep2 cells assessed as accumulation at S phase at 5.7 uM after 48 hrs. Format: functional, Homo sapiens.
Experiment [7] has as its system HEp-2. Nature of the experiment: Cell cycle arrest in Hep2 cells assessed as accumulation at […] phase at 5.7 uM after 36 hrs. Format: functional, Homo sapiens.
For experiment [8], the system named is HEp-2. Nature of the experiment: Cell cycle arrest in Hep2 cells assessed as accumulation at G0/G1 phase at 5.7 uM after 36 hrs. Format: functional, Homo sapiens.
Experiment [9] deals with HEp-2. Nature of the experiment: Cell cycle arrest in Hep2 cells assessed as accumulation at […] phase at 5.7 uM after 48 hrs. Format: functional, Homo sapiens.
Experiment [10] concerns HEp-2. Nature of the experiment: Cell cycle arrest in Hep2 cells assessed as accumulation at G2/M phase at 5.7 uM after 24 hrs. Format: functional, Homo sapiens.
Experiment [11] deals with HEp-2. Nature of the experiment: Cell cycle arrest in Hep2 cells assessed as accumulation at S phase at 5.7 uM after 36 hrs. Format: functional, Homo sapiens.
The test system of experiment [12] is HEp-2. Nature of the experiment: Cell cycle arrest in Hep2 cells assessed as accumulation at subG0 phase at 5.7 uM after 24 hrs. Type of experiment: functional, Homo sapiens.
Experiment [13] deals with HEp-2. Nature of the experiment: Cell cycle arrest in Hep2 cells assessed as accumulation at S phase at 5.7 uM after 24 hrs. Format: functional, Homo sapiens.
Experiment [14] concerns HEp-2. Nature of the experiment: Cell cycle arrest in Hep2 cells assessed as accumulation at subG0 phase at 5.7 uM after 48 hrs. Format: functional, Homo sapiens.
Experiment [15] concerns HEp-2. Nature of the experiment: Cell cycle arrest in Hep2 cells assessed as accumulation at subG0 phase at 5.7 uM after 36 hrs. Type of experiment: functional, Homo sapiens.
The subject of experiment [16] is HEp-2. Nature of the experiment: Cell cycle arrest in Hep2 cells assessed as accumulation at G0/G1 phase at 5.7 uM after 48 hrs. Format: functional, Homo sapiens.
For experiment [17], the system named is HEp-2. Nature of the experiment: Cell cycle arrest in Hep2 cells assessed as accumulation at S phase at 4.7 uM after 48 hrs. Type of experiment: functional, Homo sapiens.
For experiment [18], the system named is HEp-2. Nature of the experiment: Cell cycle arrest in Hep2 cells assessed as accumulation at G0/G1 phase at 4.7 uM after 36 hrs. Format: functional, Homo sapiens.
Experiment [19] deals with HEp-2. Nature of the experiment: Cell cycle arrest in Hep2 cells assessed as accumulation at G0/G1 phase at 4.7 uM after 48 hrs. Format: functional, Homo sapiens.
Experiment [20] relates to HEp-2. Nature of the experiment: Cell cycle arrest in Hep2 cells assessed as accumulation at G0/G1 phase at 4.7 uM after 24 hrs. Format: functional, Homo sapiens.
Experiment [21] deals with HEp-2. Nature of the experiment: Cell cycle arrest in Hep2 cells assessed as accumulation at S phase at 4.7 uM after 24 hrs. Format: functional, Homo sapiens.
For experiment [22], the system named is HEp-2. Nature of the experiment: Cell cycle arrest in Hep2 cells assessed as accumulation at G2/M phase at 4.7 uM after 48 hrs. Format: functional, cell-based, Homo sapiens.
For experiment [23], the system named is HEp-2. Nature of the experiment: Cell cycle arrest in Hep2 cells assessed as accumulation at G2/M phase at 4.7 uM after 36 hrs. Format: functional, Homo sapiens.
In experiment [24] the test system is HEp-2. Nature of the experiment: Cell cycle arrest in Hep2 cells assessed as accumulation at subG0 phase at 4.7 uM after 24 hrs. Format: functional, Homo sapiens.
Experiment [25] relates to HEp-2. Nature of the experiment: Cell cycle arrest in Hep2 cells assessed as accumulation at subG0 phase at 4.7 uM after 48 hrs. Type of experiment: functional, Homo sapiens.
Experiment [26] relates to HEp-2. Nature of the experiment: Cell cycle arrest in Hep2 cells assessed as accumulation at G2/M phase at 4.7 uM after 24 hrs. Format: functional, Homo sapiens.
The test system of experiment [27] is HEp-2. Nature of the experiment: Cell cycle arrest in Hep2 cells assessed as accumulation at S phase at 4.7 uM after 36 hrs. Format: functional, Homo sapiens.
In experiment [28] the test system is HEp-2. Nature of the experiment: Cell cycle arrest in Hep2 cells assessed as accumulation at subG0 phase at 4.7 uM after 36 hrs. Format: functional, Homo sapiens.

For `O=C1/C(=C/N2CCCCC2)Oc2ccccc21`, the IC50 is 47.8 µM in [1], > 50 µM in experiment [2], > 50 µM in experiment [3] and > 50 µM in experiment [4].
`O=c1c(Sc2nc3ccccc3[nH]2)coc2ccccc12`: the IC50 in [1] was 30.3 µM; in experiment [2], > 50 µM; in [3], 42.6 µM; in experiment [4] it was > 50 µM.
For `CN1CCN(/C=C2\Oc3ccccc3C2=O)CC1`, the half-inhibitory concentration (IC50) in [1] was 40.3 µM; in [2], > 50 µM; in [3], > 50 µM; in experiment [4], > 50 µM.
`Cc1nnc(Sc2coc3ccccc3c2=O)o1`: the half-inhibitory concentration (IC50) in experiment [1], in experiment [2], in [3] and in experiment [4] was > 50 µM each time.
Consider `Cc1nnc(Sc2coc3ccccc3c2=O)s1`, for which the IC50 was > 50 µM in experiment [1], > 50 µM in experiment [2], 40.2 µM in [3] and > 50 µM in [4].
Regarding `Nc1nnc(Sc2coc3ccccc3c2=O)s1`, the IC50 in [1] is > 50 µM; in [2], > 50 µM; in [3] it was 47.7 µM; in experiment [4], > 50 µM.
`Cc1cc(C)nc(Sc2coc3ccccc3c2=O)n1`: the IC50 in experiment [1], in experiment [2], in [3] and in experiment [4] was > 50 µM throughout.
For `CN1CCN(/C=C2\Oc3ccccc3C2=O)C(c2ccccc2)C1` (stereo not given), the IC50 in [1], in [2], in [3] and in experiment [4] was > 50 µM throughout.
With `O=C1/C(=C/N2CCN(Cc3ccccc3)CC2)Oc2ccccc21`, the Activity in experiment [5] is listed as 44.87%; in experiment [6], 17.83%; in [7] it was 17.46%; in experiment [8], 58.7%; in [9] it was 6.32%; in experiment [10], 32.14%. For the same compound, the Activity is 23.84% in [11]; 4.69% in experiment [12]; 22.98% in experiment [13]; 18.2% in experiment [14]; 4.93% in experiment [15]; 75.85% in experiment [16]. For the same compound, the concentration for half-maximal inhibition (IC50) is 7.6 µM in experiment [1], 9.6 µM in experiment [2], 5.7 µM in experiment [3] and 6.6 µM in [4].
For the compound `O=C1/C(=C/N2CCN(CC(c3ccc(F)cc3)c3ccc(F)cc3)CC2)Oc2ccccc21`, the Activity in experiment [17] is given as 20.89%; in experiment [18], 63.03%; in experiment [19], 73.71%; in experiment [20], 55.9%; in experiment [21], 25.01%; in experiment [22] it was 5.41%. Besides, the Activity in [23] stood at 18.52%; in experiment [24], 0%; in [25], 16.46%; in experiment [26] it was 19.09%; in experiment [27] it was 18.45%; in experiment [28], 5.55%. Further, the IC50 in [1] was found to be 4.1 µM; in experiment [2], 12.1 µM; in experiment [3], 4.7 µM; in [4], 13.1 µM.
As to `O=C1/C(=C/N2CCN(c3ccccc3)CC2)Oc2ccccc21`, the concentration for half-maximal inhibition (IC50) in [1] is 25.1 µM; in experiment [2], 45.1 µM; in experiment [3], 27.7 µM; in experiment [4] it was 36.4 µM.
Taken in the same sequence, the figures for `O=c1c(Sc2nc3ccccc3o2)coc2ccccc12` were 26.1 µM, > 50 µM, 29.6 µM and 36.4 µM.
For the compound `O=c1c(Sc2nc3ccccc3s2)coc2ccccc12`, the half-inhibitory concentration (IC50) in experiment [1] is 17.1 µM; in experiment [2], > 50 µM; in experiment [3], 31.3 µM; in [4] it was 45.2 µM.
Taken in the same sequence, the figures for `O=c1[nH]cc(F)c(=O)[nH]1` [FLUOROURACIL] were 14.5 µM, 18.6 µM, 129 µM and 8.1 µM.

By IC50 is commonly meant the concentration that inhibits the measured activity by half. The low end stands for greater potency in that assay, the high end for weaker potency in that assay.
